The nature of this data set: method code SF-HPLC, from DOI: 10.1081/jlc-100101463. As to conditions: pH 12.0.

Here are results for 13 compounds from the SangsterLogP compilation.

A word on the logD: it is the decadic logarithm of the distribution of all forms, ionised or not, between an organic phase and buffer at a given pH. On to `NC1=NCC(CN2CCC(C(=O)c3ccccc3)CC2)O1` (stereo not drawn), for which the logD was 1.05.

Compound `CC1CCCCN1CC1CN=C(N)O1` (stereo not drawn) had a logD of 0.73.

`CC1CCCC(C)N1CC1CN=C(N)O1` (stereo not drawn): the logD is 0.94.

The compound `NC1=NCC(CN2CCOCC2)O1` (stereo not drawn) came in with a logD of -0.22.

In turn, `CC(=O)c1cccc(OCC2CN=C(N)O2)c1` (stereo not drawn) had a logD of 1.31.

`NC1=NCC(CN2CCC(c3ccccc3)CC2)O1` (stereo not drawn) yielded a logD of 1.96.

`NC1=NCC(CN2CC=CCC2)O1` (stereo not drawn) gave a logD of 0.19.

`Cc1cc(C)cc(OCC2CN=C(N)O2)c1` (stereo not drawn) showed a pH-dependent lipophilicity (logD) of 2.24.

On to `CC1CN(CC2CN=C(N)O2)CC(C)O1` (stereo not drawn), for which the logD was 0.16.

Compound `NC1=NCC(CN2CCC(Cc3ccccc3)CC2)O1` (stereo not drawn) returned a logD of 2.38.

Turning to `CC1CCN(CC2CN=C(N)O2)CC1` (stereo not drawn), the logD amounted to 0.91.

Compound `CC(C)(C)c1ccc(OCC2CN=C(N)O2)cc1` (stereo not drawn) gave a logD of 2.87.

For the compound `CC(C)N(CC1CN=C(N)O1)C(C)C` (stereo not drawn), the log distribution coefficient (logD) amounted to 0.98.
